Key:
Assay in all cases: DSF 100 kinase selectivity screen;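 note: compound tested at 20 µM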
Type in all cases: binding
[1] = molecular target: T1, ~100 representative kinases (Homo sapiens, UniProt P54756); details: Protein EPHA5; average of three replicates
T1 construct: Recombinant protein kinase domains with a concentration of 2 μM
Method in brief: (§1)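 Each kinase domain, at 2 μM, is mixed with 20 μM test compound and SYPRO Orange in Hepes (20 mM, pH 7.5) with 500 mM NaCl. Temperature is then raised at 3°C/min and fluorescence-monitored unfolding yields the melting temperature change, ΔTm in degrees Celsius.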

[2] = molecular target: T2, ~100 representative kinases (Homo sapiens, UniProt Q96SB4); details: Protein SRPK1; DSF; average of three replicates
T2 construct: Recombinant protein kinase domains with a concentration of 2 μM
T2 sequence (Q96SB4 whole entry, the tested form may be a part): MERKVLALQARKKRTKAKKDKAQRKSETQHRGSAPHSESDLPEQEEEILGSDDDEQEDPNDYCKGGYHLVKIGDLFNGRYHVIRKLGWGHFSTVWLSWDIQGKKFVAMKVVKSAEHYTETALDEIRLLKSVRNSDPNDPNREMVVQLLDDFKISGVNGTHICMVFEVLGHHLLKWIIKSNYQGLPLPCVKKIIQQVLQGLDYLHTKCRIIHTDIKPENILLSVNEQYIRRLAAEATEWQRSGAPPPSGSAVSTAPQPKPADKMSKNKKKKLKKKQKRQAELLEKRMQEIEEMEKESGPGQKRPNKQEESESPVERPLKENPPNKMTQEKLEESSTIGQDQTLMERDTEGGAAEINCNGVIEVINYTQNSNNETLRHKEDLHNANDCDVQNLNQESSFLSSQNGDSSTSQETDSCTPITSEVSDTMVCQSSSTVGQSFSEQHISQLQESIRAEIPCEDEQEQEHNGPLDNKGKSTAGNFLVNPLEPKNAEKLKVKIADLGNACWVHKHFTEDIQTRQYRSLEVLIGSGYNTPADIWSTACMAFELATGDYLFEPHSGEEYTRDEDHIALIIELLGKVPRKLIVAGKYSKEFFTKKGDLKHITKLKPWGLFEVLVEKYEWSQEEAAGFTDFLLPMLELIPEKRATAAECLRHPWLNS
Method in brief: as §1

[3] = molecular target: T3, ~100 representative kinases (Homo sapiens, UniProt P24941); details: Protein CDK2; average of three replicates
T3 construct: Recombinant protein kinase domains with a concentration of 2 μM
Method in brief: as §1

[4] = molecular target: T4, ~100 representative kinases (Homo sapiens, UniProt P49137); details: protein MAPKAPK2; average of three replicates
T4 construct: Recombinant protein kinase domains with a concentration of 2 μM
T4 sequence (P49137 whole entry, the tested form may be a part): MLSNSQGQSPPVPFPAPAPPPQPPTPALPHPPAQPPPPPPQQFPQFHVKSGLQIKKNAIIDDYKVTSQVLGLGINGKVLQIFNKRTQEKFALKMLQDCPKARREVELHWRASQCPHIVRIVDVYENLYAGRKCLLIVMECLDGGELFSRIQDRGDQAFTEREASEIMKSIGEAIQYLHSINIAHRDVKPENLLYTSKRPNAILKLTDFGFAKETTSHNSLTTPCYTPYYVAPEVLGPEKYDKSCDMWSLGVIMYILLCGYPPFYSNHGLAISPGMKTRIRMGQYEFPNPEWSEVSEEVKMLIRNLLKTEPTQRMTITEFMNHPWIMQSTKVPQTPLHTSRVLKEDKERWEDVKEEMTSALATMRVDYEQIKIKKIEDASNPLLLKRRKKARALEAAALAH
Method in brief: as §1

[5] = molecular target: T5, ~100 representative kinases (Homo sapiens, UniProt Q99683); details: protein MAP3K5; average of three replicates
T5 construct: Recombinant protein kinase domains with a concentration of 2 μM
T5 sequence (Q99683 1-1374): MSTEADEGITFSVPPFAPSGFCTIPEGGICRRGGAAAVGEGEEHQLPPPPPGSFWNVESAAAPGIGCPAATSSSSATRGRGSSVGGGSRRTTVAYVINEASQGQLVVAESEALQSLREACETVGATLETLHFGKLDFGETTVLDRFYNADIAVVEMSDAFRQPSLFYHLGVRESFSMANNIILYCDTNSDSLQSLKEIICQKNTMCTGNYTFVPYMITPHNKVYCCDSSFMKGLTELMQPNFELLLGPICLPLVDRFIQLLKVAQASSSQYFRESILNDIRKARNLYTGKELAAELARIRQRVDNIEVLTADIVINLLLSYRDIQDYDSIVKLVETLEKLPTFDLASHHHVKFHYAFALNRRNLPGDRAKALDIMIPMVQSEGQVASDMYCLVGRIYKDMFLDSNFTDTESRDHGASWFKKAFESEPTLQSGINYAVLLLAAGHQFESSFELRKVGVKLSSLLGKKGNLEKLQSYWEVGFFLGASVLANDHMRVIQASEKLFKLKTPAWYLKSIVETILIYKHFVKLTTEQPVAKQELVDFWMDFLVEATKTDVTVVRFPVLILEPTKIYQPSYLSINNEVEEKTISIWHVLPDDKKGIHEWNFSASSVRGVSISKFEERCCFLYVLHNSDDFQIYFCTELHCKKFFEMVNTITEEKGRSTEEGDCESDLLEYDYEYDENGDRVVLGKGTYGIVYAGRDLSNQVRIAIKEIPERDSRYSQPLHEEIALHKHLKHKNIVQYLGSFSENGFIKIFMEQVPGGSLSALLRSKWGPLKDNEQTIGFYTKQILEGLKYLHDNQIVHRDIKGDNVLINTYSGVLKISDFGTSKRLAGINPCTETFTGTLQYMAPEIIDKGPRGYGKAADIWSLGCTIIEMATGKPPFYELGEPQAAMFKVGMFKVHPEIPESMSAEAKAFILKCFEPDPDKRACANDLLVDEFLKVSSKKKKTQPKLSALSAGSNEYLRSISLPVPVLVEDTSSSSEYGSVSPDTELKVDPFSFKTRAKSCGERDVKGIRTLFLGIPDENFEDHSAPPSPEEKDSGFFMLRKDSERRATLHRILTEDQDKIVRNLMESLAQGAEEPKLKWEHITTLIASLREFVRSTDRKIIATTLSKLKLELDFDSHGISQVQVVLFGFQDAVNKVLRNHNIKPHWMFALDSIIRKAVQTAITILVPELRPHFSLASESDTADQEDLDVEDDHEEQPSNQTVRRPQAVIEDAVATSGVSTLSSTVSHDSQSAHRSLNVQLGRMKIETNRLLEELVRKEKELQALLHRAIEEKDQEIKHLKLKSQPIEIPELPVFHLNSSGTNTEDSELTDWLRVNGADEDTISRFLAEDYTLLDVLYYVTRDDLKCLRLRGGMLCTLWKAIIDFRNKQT
Method in brief: as §1

[6] = molecular target: T6, ~100 representative kinases (Homo sapiens, UniProt P28482); details: protein MAPK1; average of three replicates
T6 construct: Recombinant protein kinase domains with a concentration of 2 μM
T6 sequence (P28482 whole entry, the tested form may be a part): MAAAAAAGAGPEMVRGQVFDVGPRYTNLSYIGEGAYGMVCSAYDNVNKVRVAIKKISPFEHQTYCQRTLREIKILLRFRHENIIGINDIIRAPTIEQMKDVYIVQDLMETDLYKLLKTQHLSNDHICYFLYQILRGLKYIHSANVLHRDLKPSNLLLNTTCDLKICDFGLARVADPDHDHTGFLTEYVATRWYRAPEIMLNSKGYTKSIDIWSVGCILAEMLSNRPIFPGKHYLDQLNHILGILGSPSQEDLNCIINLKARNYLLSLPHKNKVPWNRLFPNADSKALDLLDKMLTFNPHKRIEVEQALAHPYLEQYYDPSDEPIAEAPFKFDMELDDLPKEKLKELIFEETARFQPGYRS
Method in brief: as §1

[7] = molecular target: T7, ~100 representative kinases (Homo sapiens, UniProt P54764); details: Protein EPHA4; average of three replicates
T7 construct: Recombinant protein kinase domains with a concentration of 2 μM
T7 sequence (P54764 20-986): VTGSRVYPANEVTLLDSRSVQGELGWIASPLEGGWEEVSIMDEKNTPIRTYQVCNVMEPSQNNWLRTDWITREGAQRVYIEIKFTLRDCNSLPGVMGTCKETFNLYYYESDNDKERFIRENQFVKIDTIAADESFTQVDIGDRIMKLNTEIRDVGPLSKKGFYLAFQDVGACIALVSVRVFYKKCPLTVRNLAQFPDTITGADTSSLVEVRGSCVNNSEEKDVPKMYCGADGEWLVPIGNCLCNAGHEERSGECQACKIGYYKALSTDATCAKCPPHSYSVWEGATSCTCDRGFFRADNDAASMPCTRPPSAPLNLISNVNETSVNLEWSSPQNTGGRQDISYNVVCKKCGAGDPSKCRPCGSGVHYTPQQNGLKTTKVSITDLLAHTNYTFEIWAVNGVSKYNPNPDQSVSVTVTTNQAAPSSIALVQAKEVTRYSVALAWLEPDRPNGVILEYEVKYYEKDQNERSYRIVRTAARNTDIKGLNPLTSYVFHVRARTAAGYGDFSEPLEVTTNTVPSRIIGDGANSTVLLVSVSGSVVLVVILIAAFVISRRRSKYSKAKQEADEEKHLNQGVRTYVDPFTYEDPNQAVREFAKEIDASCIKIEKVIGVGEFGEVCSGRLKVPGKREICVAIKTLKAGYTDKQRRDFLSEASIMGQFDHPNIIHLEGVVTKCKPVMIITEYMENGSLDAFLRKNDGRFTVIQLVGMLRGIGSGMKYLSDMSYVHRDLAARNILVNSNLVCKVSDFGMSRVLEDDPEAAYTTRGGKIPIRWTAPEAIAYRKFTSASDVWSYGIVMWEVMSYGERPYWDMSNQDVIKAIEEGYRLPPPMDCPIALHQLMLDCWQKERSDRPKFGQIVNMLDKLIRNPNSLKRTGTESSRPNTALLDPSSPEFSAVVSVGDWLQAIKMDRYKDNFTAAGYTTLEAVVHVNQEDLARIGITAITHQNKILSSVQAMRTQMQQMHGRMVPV
Method in brief: as §1

[8] = molecular target: T8, ~100 representative kinases (Homo sapiens, UniProt O43293); details: Protein DAPK3; average of three replicates
T8 construct: Recombinant protein kinase domains with a concentration of 2 μM
T8 sequence (O43293 whole entry, the tested form may be a part): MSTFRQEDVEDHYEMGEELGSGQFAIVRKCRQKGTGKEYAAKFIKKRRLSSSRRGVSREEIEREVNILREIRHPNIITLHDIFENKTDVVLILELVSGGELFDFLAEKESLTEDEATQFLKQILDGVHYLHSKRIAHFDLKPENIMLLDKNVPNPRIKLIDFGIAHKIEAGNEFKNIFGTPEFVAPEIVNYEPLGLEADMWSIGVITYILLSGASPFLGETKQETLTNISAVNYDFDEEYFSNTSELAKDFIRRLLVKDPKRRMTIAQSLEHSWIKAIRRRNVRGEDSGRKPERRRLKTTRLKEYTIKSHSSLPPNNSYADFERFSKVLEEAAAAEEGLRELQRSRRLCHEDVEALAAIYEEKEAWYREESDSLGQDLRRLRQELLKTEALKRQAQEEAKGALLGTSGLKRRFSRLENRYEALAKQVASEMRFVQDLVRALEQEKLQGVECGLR
Method in brief: as §1

[9] = molecular target: T9, ~100 representative kinases (Homo sapiens, UniProt Q8IU85); details: Protein CAMK1D; average of three replicates
T9 construct: Recombinant protein kinase domains with a concentration of 2 μM
T9 sequence (Q8IU85 whole entry, the tested form may be a part): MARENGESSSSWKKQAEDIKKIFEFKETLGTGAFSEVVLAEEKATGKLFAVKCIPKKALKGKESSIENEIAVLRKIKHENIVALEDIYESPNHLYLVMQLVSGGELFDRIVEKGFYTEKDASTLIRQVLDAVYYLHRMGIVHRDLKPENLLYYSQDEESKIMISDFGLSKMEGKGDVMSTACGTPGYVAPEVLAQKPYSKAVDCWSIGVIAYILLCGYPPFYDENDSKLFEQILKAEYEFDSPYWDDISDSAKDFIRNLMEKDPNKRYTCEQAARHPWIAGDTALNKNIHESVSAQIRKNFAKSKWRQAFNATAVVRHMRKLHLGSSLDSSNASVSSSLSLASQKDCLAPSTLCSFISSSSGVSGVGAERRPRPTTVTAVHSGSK
Method in brief: as §1

[10] = molecular target: T10, ~100 representative kinases (Homo sapiens, UniProt Q09013); details: Protein DMPK1; average of three replicates
T10 construct: Recombinant protein kinase domains with a concentration of 2 μM
T10 sequence (Q09013 1-629): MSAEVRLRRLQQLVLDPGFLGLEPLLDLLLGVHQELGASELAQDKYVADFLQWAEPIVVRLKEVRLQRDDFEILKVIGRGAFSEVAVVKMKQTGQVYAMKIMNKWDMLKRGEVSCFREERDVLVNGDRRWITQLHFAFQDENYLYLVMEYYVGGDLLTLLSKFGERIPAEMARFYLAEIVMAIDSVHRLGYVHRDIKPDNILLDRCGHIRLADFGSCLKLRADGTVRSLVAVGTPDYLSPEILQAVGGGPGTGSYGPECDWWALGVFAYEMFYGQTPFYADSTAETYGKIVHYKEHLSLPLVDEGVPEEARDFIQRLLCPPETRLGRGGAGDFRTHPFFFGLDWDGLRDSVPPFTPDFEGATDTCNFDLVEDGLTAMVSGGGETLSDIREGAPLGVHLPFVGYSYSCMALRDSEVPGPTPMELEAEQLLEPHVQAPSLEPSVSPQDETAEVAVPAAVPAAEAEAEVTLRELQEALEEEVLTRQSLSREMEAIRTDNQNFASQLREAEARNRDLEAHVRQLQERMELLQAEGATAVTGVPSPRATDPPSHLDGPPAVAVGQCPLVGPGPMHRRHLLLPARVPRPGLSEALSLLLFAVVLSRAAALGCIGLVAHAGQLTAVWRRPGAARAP
Method in brief: as §1

[11] = molecular target: T11, ~100 representative kinases (Homo sapiens, UniProt P49674); details: Protein CSNK1E; average of three replicates
T11 construct: Recombinant protein kinase domains with a concentration of 2 μM
T11 sequence (P49674 whole entry, the tested form may be a part): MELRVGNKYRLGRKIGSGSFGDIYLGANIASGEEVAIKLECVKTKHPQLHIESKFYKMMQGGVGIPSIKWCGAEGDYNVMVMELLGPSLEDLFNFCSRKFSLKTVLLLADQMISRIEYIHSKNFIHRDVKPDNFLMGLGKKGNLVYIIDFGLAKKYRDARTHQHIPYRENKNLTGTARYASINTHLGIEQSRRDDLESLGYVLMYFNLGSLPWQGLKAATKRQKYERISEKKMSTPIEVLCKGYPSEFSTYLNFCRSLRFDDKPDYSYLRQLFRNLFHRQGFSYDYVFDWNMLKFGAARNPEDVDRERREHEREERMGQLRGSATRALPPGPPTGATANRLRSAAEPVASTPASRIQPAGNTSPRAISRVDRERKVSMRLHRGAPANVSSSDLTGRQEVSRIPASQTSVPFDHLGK
Method in brief: as §1

T1 sequence (P54756 25-1037): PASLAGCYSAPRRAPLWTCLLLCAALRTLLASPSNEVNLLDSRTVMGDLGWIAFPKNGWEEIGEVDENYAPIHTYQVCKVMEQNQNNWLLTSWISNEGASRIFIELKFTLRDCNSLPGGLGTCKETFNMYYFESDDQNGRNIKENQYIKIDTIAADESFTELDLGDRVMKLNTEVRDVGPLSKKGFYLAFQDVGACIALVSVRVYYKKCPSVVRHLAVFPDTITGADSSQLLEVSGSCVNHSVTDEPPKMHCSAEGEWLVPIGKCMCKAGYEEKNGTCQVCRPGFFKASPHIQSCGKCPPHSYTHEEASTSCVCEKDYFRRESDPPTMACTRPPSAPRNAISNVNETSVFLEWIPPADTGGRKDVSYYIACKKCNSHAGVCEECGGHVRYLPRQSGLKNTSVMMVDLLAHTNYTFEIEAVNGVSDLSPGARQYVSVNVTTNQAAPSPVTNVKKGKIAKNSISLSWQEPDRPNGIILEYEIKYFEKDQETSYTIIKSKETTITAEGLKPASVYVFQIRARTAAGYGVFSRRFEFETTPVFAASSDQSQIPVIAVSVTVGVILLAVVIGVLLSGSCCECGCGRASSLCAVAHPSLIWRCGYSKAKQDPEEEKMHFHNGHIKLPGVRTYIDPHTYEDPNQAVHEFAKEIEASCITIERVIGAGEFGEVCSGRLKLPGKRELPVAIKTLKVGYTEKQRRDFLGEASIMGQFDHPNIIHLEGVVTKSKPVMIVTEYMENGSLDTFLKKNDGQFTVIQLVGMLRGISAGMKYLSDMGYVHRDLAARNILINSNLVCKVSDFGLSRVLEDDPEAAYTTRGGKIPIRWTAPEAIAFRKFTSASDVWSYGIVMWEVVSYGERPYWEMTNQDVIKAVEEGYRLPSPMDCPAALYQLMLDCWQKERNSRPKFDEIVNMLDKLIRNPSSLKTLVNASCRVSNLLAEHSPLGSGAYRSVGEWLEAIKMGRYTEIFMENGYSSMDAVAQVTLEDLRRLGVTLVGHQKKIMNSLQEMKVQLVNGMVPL

Compound | dTm [1] | dTm [2] | dTm [3] | dTm [4] | dTm [5] | dTm [6] | dTm [7] | dTm [8] | dTm [9] | dTm [10] | dTm [11]
Cc1ccc(C(=O)Nc2ccc(CN3CCN(C)CC3)c(C(F)(F)F)c2)cc1C#Cc1c[nH]c2ncnc(N3CCOCC3)c12 [Compound 1] | 5.80 K | 15.50 K | 3.53 K | -0.41 K | 6.86 K | 0.68 K | 4.12 K | 0.53 K | 0.56 K | 0.98 K | 
O=C(Nc1ccc(F)cc1)C1(C(=O)Nc2cccc(-c3c[nH]c4ncnc(N5CCOCC5)c34)c2)CC1 [Compound 2] | 3.27 K | 10.56 K | 4.78 K | -0.40 K | 3.63 K | -0.20 K | 2.10 K | 7.00 K | -1.26 K | -0.63 K | 4.37 K
O=C(Nc1cccc(-c2c[nH]c3ncnc(N4CCOCC4)c23)c1)c1cccn(-c2ccc(F)cc2)c1=O [Compound 4] | 3.25 K | 9.86 K | 7.66 K | -0.41 K | 4.59 K | -0.49 K | 2.61 K | 5.01 K | -1.98 K | -0.68 K | 7.33 K
Cc1cc(NC(=O)C2(C(=O)Nc3ccc(F)cc3)CC2)cc(-c2c[nH]c3ncnc(N4CCOCC4)c23)c1 [Compound 6] | 2.48 K | 7.72 K | 2.92 K | 0.62 K | 4.24 K | 0.01 K | 2.49 K | 3.25 K | 1.65 K | 1.12 K | 4.54 K
O=C(Nc1cccc(-c2c[nH]c3ncnc(N4CCOCC4)c23)c1)C1(C(=O)Nc2cccc3c2CCC3)CC1 [Compound 11] | -0.41 K | 6.49 K | 4.66 K | -0.26 K | 3.33 K | 1.31 K | 0.40 K | 3.33 K | 1.59 K | -0.08 K | 4.91 K
O=C(Nc1ccccc1)C1(C(=O)Nc2cccc(-c3c[nH]c4ncnc(N5CCOCC5)c34)c2)CC1 [Compound 12] | 1.91 K | 7.66 K | 3.53 K | -0.15 K | 2.42 K | 0.22 K | 1.72 K | 6.20 K | -1.41 K | -0.21 K | 3.99 K
O=C(Nc1ccc(Cl)cc1)C1(C(=O)Nc2cccc(-c3c[nH]c4ncnc(N5CCOCC5)c34)c2)CC1 [Compound 13] | 4.99 K | 12.04 K | 8.33 K | 0.68 K | 4.01 K | 0.06 K | 4.09 K | 8.55 K | 0.67 K | -0.32 K | 5.46 K
Cc1ccc(NC(=O)C2(C(=O)Nc3cccc(-c4c[nH]c5ncnc(N6CCOCC6)c45)c3)CC2)cc1 [Compound 14] | 3.63 K | 7.30 K | 7.03 K | -0.14 K | 1.35 K | -0.09 K | 2.64 K | 4.16 K | -1.76 K | -0.76 K | 3.41 K
CCNc1nc(Nc2cc(F)c(C(=O)N3CCOCC3)cc2OC)ncc1C(F)(F)F [GNE-7915] | -0.45 K | 0.15 K | 1.40 K | -0.23 K | 3.14 K | 0.38 K | 0.0738 K | 1.72 K | -0.16 K | 0.77 K | 
Cc1ccc(C(=O)Nc2ccc(CN3CCN(C)CC3)c(C(F)(F)F)c2)cc1C#Cc1cnc2[nH]ncc2c1 [GZD-824, reference compound] | 14.58 K | 13.60 K | 4.99 K | -0.24 K | 5.05 K | 0.87 K | 15.22 K | 0.50 K | -0.60 K | 3.13 K | 
C[C@@H]1CN(c2cc(-c3n[nH]c4ccc(OC5(C)CC5)cc34)ncn2)C[C@H](C)O1 [MLi2] | -0.96 K | 0.11 K | -0.0213 K | -0.23 K | 3.65 K | 0.49 K | -0.15 K | 1.94 K | 2.16 K | 0.14 K | 
Cn1cc(-c2c[nH]c3ncnc(N4CCOCC4)c23)cc1C#N [PFE-360] | -0.69 K | -0.23 K | 0.68 K | 0.0427 K | 15.45 K | 0.55 K | 0.0126 K | 1.10 K | -1.69 K | 1.66 K | 
Cc1ccc(C(=O)Nc2ccc(CN3CCN(C)CC3)c(C(F)(F)F)c2)cc1C#Cc1cnc2cccnn12 [Ponatinib, reference compound] |  |  | 4.72 K |  |  |  |  |  |  |  | 
CN[C@@H]1C[C@H]2O[C@@](C)([C@@H]1OC)n1c3ccccc3c3c4c(c5c6ccccc6n2c5c31)C(=O)NC4 [Staurosporine] |  | 7.17 K |  |  |  |  | 6.68 K |  |  |  | 

Reference: PMC12136037, “Type II kinase inhibitors that target Parkinson’s disease–associated LRRK2” (Science Advances, 2025)
